{"source": "ChEMBL document CHEMBL1201862", "about": "“PubChem BioAssay data set” (2004)", "assay_in_all_cases": "NCI anticancer screen, dose series, 48 h", "key": {"[1]": {"system": "SNB-75"}, "[2]": {"system": "SN12C"}, "[3]": {"system": "SF-295"}, "[4]": {"system": "NCI-H226"}, "[5]": {"system": "LOX IMVI"}, "[6]": {"system": "LXFL 529"}, "[7]": {"system": "786-0"}, "[8]": {"system": "CCRF-CEM"}, "[9]": {"system": "SK-MEL-28"}, "[10]": {"system": "SNB-19"}, "[11]": {"system": "UACC-62"}, "[12]": {"system": "RXF 393"}, "[13]": {"system": "M19-MEL"}, "[14]": {"system": "EKVX"}, "[15]": {"system": "DMS-114"}, "[16]": {"system": "K562"}, "[17]": {"system": "SW-620"}, "[18]": {"system": "COLO 205"}, "[19]": {"system": "OVCAR-8"}, "[20]": {"system": "HL-60"}, "[21]": {"system": "SK-OV-3"}, "[22]": {"system": "NCI-H460"}, "[23]": {"system": "NCI-H522"}, "[24]": {"system": "MOLT-4"}, "[25]": {"system": "OVCAR-5"}, "[26]": {"system": "NCI-H23"}, "[27]": {"system": "Malme-3M"}, "[28]": {"system": "TK-10"}, "[29]": {"system": "HOP-62"}, "[30]": {"system": "KM12"}, "[31]": {"system": "HCC 2998"}, "[32]": {"system": "UO-31"}, "[33]": {"system": "OVCAR-3"}, "[34]": {"system": "SNB-78"}, "[35]": {"system": "HCT-15"}, "[36]": {"system": "RXF 631"}, "[37]": {"system": "UACC-257"}, "[38]": {"system": "SF-268"}, "[39]": {"system": "A498"}, "[40]": {"system": "SK-MEL-5"}, "[41]": {"system": "ACHN"}, "[42]": {"system": "HOP-18"}, "[43]": {"system": "SK-MEL-2"}, "[44]": {"system": "M14"}, "[45]": {"system": "A549"}, "[46]": {"system": "RPMI-8226"}, "[47]": {"system": "KM-20L2"}, "[48]": {"system": "SF-539"}, "[49]": {"system": "IGROV-1"}, "[50]": {"system": "U-251"}}, "note": "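Compound exposure: 48 hours, 5 concentrations, 96-well plates. GI50: concentration for 50% inhibition of growth.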 Calls of active or inactive are those of the source. Cut-off read from the data, not from the text of the source: active = GI50 up to about 1.1 µM and inactive = higher.", "data": [{"smiles": "Cc1c(C)c2cc3c(=O)ccoc3c(C)c2oc1=O", "values": [{"measurement": "GI50", "setting": "[1]", "result": "15 µM (inactive)"}, {"measurement": "GI50", "setting": "[2]", "result": "56.6 µM (inactive)"}, {"measurement": "GI50", "setting": "[3]", "result": "> 100 µM (inactive)"}, {"measurement": "GI50", "setting": "[4]", "result": "29.8 µM (inactive)"}, {"measurement": "GI50", "setting": "[5]", "result": "54 µM (inactive)"}, {"measurement": "GI50", "setting": "[6]", "result": "80.4 µM (inactive)"}, {"measurement": "GI50", "setting": "[7]", "result": "> 100 µM (inactive)"}, {"measurement": "GI50", "setting": "[8]", "result": "44 µM (inactive)"}, {"measurement": "GI50", "setting": "[9]", "result": "> 100 µM (inactive)"}, {"measurement": "GI50", "setting": "[10]", "result": "48.6 µM (inactive)"}, {"measurement": "GI50", "setting": "[11]", "result": "21.9 µM (inactive)"}, {"measurement": "GI50", "setting": "[12]", "result": "25 µM (inactive)"}, {"measurement": "GI50", "setting": "[13]", "result": "70.6 µM (inactive)"}, {"measurement": "GI50", "setting": "[14]", "result": "> 100 µM (inactive)"}, {"measurement": "GI50", "setting": "[15]", "result": "48.3 µM (inactive)"}, {"measurement": "GI50", "setting": "[16]", "result": "> 100 µM (inactive)"}, {"measurement": "GI50", "setting": "[17]", "result": "> 100 µM (inactive)"}, {"measurement": "GI50", "setting": "[18]", "result": "47 µM (inactive)"}, {"measurement": "GI50", "setting": "[19]", "result": "> 100 µM (inactive)"}, {"measurement": "GI50", "setting": "[20]", "result": "50.2 µM (inactive)"}, {"measurement": "GI50", "setting": "[21]", "result": "57.1 µM (inactive)"}, {"measurement": "GI50", "setting": "[22]", "result": "> 100 µM (inactive)"}, {"measurement": "GI50", "setting": "[23]", "result": "69.8 µM (inactive)"}, {"measurement": "GI50", "setting": "[24]", "result": "20.9 µM (inactive)"}, {"measurement": "GI50", "setting": "[25]", "result": "> 100 µM (inactive)"}, {"measurement": "GI50", "setting": "[26]", "result": "> 100 µM (inactive)"}, {"measurement": "GI50", "setting": "[27]", "result": "> 100 µM (inactive)"}, {"measurement": "GI50", "setting": "[28]", "result": "> 100 µM (inactive)"}, {"measurement": "GI50", "setting": "[29]", "result": "> 100 µM (inactive)"}, {"measurement": "GI50", "setting": "[30]", "result": "> 100 µM (inactive)"}, {"measurement": "GI50", "setting": "[31]", "result": "> 100 µM (inactive)"}, {"measurement": "GI50", "setting": "[32]", "result": "24.4 µM (inactive)"}, {"measurement": "GI50", "setting": "[33]", "result": "> 100 µM (inactive)"}, {"measurement": "GI50", "setting": "[34]", "result": "> 100 µM (inactive)"}, {"measurement": "GI50", "setting": "[35]", "result": "> 100", "unit": "µM"}, {"measurement": "GI50", "setting": "[36]", "result": "83 µM (inactive)"}, {"measurement": "GI50", "setting": "[37]", "result": "> 100 µM (inactive)"}, {"measurement": "GI50", "setting": "[38]", "result": "71.3 µM (inactive)"}, {"measurement": "GI50", "setting": "[39]", "result": "> 100 µM (inactive)"}, {"measurement": "GI50", "setting": "[40]", "result": "> 100 µM (inactive)"}, {"measurement": "GI50", "setting": "[41]", "result": "> 100 µM (inactive)"}, {"measurement": "GI50", "setting": "[42]", "result": "41.6 µM (inactive)"}, {"measurement": "GI50", "setting": "[43]", "result": "> 100 µM (inactive)"}, {"measurement": "GI50", "setting": "[44]", "result": "> 100 µM (inactive)"}, {"measurement": "GI50", "setting": "[45]", "result": "> 100 µM (inactive)"}, {"measurement": "GI50", "setting": "[46]", "result": "> 100 µM (inactive)"}, {"measurement": "GI50", "setting": "[47]", "result": "> 100 µM (inactive)"}, {"measurement": "GI50", "setting": "[48]", "result": "85.5 µM (inactive)"}, {"measurement": "GI50", "setting": "[49]", "result": "39.8 µM (inactive)"}, {"measurement": "GI50", "setting": "[50]", "result": "> 100 µM (inactive)"}]}]}
